Tests used:
[1] = tested on: guinea pig left atria; assay: Guinea Pig Left Atria Test: direct effect on force of atrial contraction; format: cell-based; conditions: Cavia porcellus, propranolol and phentolamine (1.0 micromolar each) present
Protocol: This test is carried out as generally described by T. P. Kenakin et al in Journal of Cardiovascular Pharmacology 101, 658-666 (1987) and in the Journal of Pharmacology and Experimental Therapeutics, Vol. 213, 406-413 (1980).
Male Hartley guinea-pigs (300-400 grams) were sacrificed by cervical dislocation or carbon dioxide asphyxiation. The hearts were immediately removed and placed in oxygenated Krebs-Henseleit buffer (composition (millimolar): Na^+ 143, K^+ 5.9, Ca^++ 1.25, Mg^++ 1.2, Cl^- 128, HCO3^- 25, SO4^-- 1.2, H2 PO4^- 1.0, and D-glucose 10). Left atria were dissected away from the remainder of the heart and mounted on holders against platinum punctate electrodes. The mounted atria were placed in tissue baths maintained at 31° C. and oxygenated with 95% 02 -5% CO2 under 1.0 gram resting tension. […] Contractions were detected with a force displacement transducer and recorded on a physiograph. […]
Direct effects of the test compounds on the force of atrial contraction were observed and recorded after addition of the compounds to the tissue bath. […] Responses to the test compounds and forskolin were expressed as a percentage of the maximal response to forskolin. EC50 values for the test compounds were calculated as the concentration of the compound necessary to produce an inotropic response half that of the maximal response produced by the test compound.

[2] = tested on: barbiturate-anesthetized dogs; assay: Anesthetized Dog: inotropic effect (increase in baseline left ventricular dP/dt); format: in vivo
Protocol: (§1) Inotropic effects were evaluated in barbiturate-anesthetized dogs by differentiating left intraventricular pressure. This procedure was carried out essentially as described by M. K. Grizzel et al in the FASEB Journal, Vol. 3, page 1039, abstract 4728 (1989). Purpose breed mongrel dogs (14-20 kg) of either sex were anesthetized with a mixture of sodium pentobarbital (15 mg/kg) and sodium barbital (300 mg/kg) i.v., intubated with a cuffed endotracheal tube and ventilated with a respirator (Harvard Apparatus, model 613, South Natick, Mass.) with room air (22 rpm, 10-12 ml/kg/stroke). […] Cardiac output was determined via thermodilution with a Spectramed computer (Starcom., Oxnard, Calif.) and a 5F Swan Ganz catheter which was inserted into the right jugular vein and positioned in the pulmonary artery. […] A lead II electrocardiogram was measured using subcutaneous electrodes. […] Rectal temperature was monitored and maintained at 37°-38° C. with a heating pad (Baxter Health Care model K20, McGaw Park, Ill.). All variables were recorded using a Gould 3800S physiograph.
(§2) Isoproterenol (0.1-0.5 μg/kg) was injected i.v. into the cephalic vein at 10 min intervals except for when the test drug infusion was begun. […] Inhibition of the isoproterenol responses on contractility (dP/dt), heart rate and diastolic blood pressure were determined at each dose of test compound. […]

[3] = tested on: barbiturate-anesthetized dogs; assay: Anesthetized Dog: beta-blocking effect (inhibition of the dP/dt response to isoproterenol); format: in vivo; conditions: Canis lupus familiaris, iv, infusion, isoproterenol 0.1-0.5 μg/kg i.v.
Protocol: as §1, §2

[4] = tested on: rat aorta; assay: Rat Aorta Protocol: relaxation of phenylephrine-contracted rat aorta rings (endothelium removed); format: cell-based
Protocol: Such vasorelaxation appears to be related to inhibition of the phosphodiesterase (PDE) isozyme related to the cardiac sarcoplasmic reticulum. Thus, relaxation of rat aorta can be used as a screen to eliminate compounds which are not PDE inhibitors prior to testing for actual inotropic activity.
Rings of rat aorta (endothelium removed) were prepared for the measurement of isometric force in isolated tissue organ chambers essentially as previously described by T. J. Rimele et al in the Journal of Pharmacol. Exo. Ther. 245:102-111 (1988). The experimental portion of the protocol began with the addition of methylene blue (1×10^-5 M) and propranolol (1×10^-6 M) to each organ chamber to inhibit basal cGMP accumulation due to soluble guanylate cyclase and beta-adrenoceptors.Phenylephrine (1×10^-7 M) was then added and the rings were allowed to obtain a stable contractile response after which time, the test compound was added in a cumulative fashion. The relaxation induced by each concentration of the test compound was expressed as a percentage of the maximal relaxation produced by nitroprusside (1×10^-4 M). The results were graphically represented as a plot of the percentage relaxation vs. the negative log of the molar concentration of the test compound. […]

[5] = target: T1, Beta-1 adrenoceptor (Rattus norvegicus, UniProt P18090); assay: Beta Adrenoceptor Binding Assays: displacement of [I-125]-Pindolol from rat brain cortical membranes; conditions: pH 7.6, 22° C., two hr, read-out: pIC50 (negative log of the IC50) (converted)
T1 construct: rat brain cortices were used as the source of membrane vesicles; from tissue; host or cells: rat brain cortex membranes
T1 sequence (P18090 whole entry): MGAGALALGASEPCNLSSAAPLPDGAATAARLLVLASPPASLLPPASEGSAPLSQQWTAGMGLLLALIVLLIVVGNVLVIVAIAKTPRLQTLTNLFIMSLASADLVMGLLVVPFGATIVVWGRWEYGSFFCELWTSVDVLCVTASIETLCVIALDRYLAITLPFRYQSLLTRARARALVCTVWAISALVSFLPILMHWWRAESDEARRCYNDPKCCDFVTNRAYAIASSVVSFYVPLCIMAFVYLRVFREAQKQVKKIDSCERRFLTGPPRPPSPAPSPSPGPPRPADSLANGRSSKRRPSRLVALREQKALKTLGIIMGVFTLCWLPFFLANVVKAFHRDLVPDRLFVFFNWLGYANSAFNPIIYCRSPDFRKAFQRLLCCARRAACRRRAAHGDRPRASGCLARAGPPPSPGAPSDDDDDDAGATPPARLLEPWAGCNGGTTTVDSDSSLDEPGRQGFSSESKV
Protocol: Because of its receptor density rat brain cortices were used as the source of membrane vesicles to be used in the receptor binding assays. Freshly excised cortexes were homogenized in 20 volumes (w/v) 50 mM TRIS HCl Buffer (pH 7.5), with a glass/Teflon homogenizer following the procedure previously described by T. J. Rimele in J. Pharmacol Exp. Ther. 239: 1-8, 1986. Beta-1 adrenoceptor binding activity was determined following methods described by M. H. Randall, et al, J. Med. Chem. 20: 1090-1094, 1977, and J. Homberger, et al in Mol. Pharmacol. 20: 453-469, 1981. The incubation mixture consisted of; 26 μl of 50 mM TRIS/HCl, 10 mM MgCl2 pH 7.6 buffer, 25 μl of test drug or 10-6 pindolol to define nonspecific binding, 100 μl of [I-125]-Pindolol (2200Ci/mM) at a final concentration of 10-9, and 100 μl of brain cortical membranes. The mixture was incubated at RT (22 ° C.) for two hr in the dark. The reaction was stopped by filtration of the mixture through buffer soaked glass fiber membranes (GF/B) using an cell harvesting device (Skatron Inc.). The radioactivity in each filter containing the trapped membrane particles was counted with a gamma counter. […] All specific binding values obtained in the presence of test compounds were expressed as the percentage of specific binding displaced by the individual agents. […]

[6] = tested on: rat aorta; conditions: literature, R. F. Kauffman et al., J. Pharmacol. Exp. Ther. 242:864-872 (1987); cited from earlier work

| SMILES | Emax at 100 µM ([1]; at 100 micromolar, read-out: maximal response (percentage of the maximal response to forskolin)) [%] | EC50 ([1]; guinea pig left atria, 31° C., read-out: ED50 (concentration producing an inotropic response half that of the maximal response produced by the test compound)) [µM] | ED50 ([2]; Canis lupus familiaris, iv, infusion, compared to baseline prior to drug infusion, read-out: inotropic ED50 (50% increase in dP/dt)) [µmol/kg] | inotropic effects at higher doses, sensitivity to atenolol ([2]; higher doses, atenolol) | ED50 [3] [µmol/kg] | Emax at 100 µM ([4]; Rattus norvegicus, at the highest dose tested (100 micromolar), read-out: maximal response (relaxation as percentage of the maximal relaxation produced by nitroprusside)) [%] | IC50 ([4]; rat aorta rings, endothelium removed, phenylephrine 1×10^-7 M, methylene blue and propranolol present, read-out: IC50 (concentration of test compound which produced a relaxation equivalent to 50% of the maximal relaxation induced by nitroprusside)) [µM] | IC50 [5] [µM] | relaxation of rat aorta [6] |
| --- | --- | --- | --- | --- | --- | --- | --- | --- | --- |
| Cc1[nH]c(=O)c(C#N)cc1-c1ccc(OCCCC(=O)NCCNCC(O)COc2ccccc2)cc1 (stereo not shown) [Example 2, 5-{4-[N-[2-(3-Phenoxy-2-hydroxypropylamino)ethyl]carbamoylpropyloxy]phenyl}-6-methyl-2-oxo-1,2-dihydro-3-pyridinecarbonitrile] | 36 | 13 | 0.04 | not blocked by atenolol | 0.055 | 97 | 23 | 0.02 |  |
| CSc1ccc(C(=O)c2[nH]c(=O)[nH]c2C)cc1 [enoximone] |  |  |  |  |  |  |  |  | marked relaxation |
| Cc1[nH]c(=O)c(C#N)cc1-c1ccncc1 [milrinone] |  |  |  |  |  |  |  |  | marked relaxation |
